Consider three compounds from patent US4551460A, “Pyrido[2,1-b]quinazoline derivatives useful as agents for treatment of allergic conditions and vascular disorders involving thrombosis” (priority 1983, dated 1985).

Molecules are shown by their SMILES. Like-named read-outs stand apart in the source and are kept apart here.

In assay [1] the test system is arachidonic acid induced platelet aggregation. The experiment in a line: Arachidonic acid induced platelet aggregation in vitro. The settings on record: read-out: AA (IC50, arachidonic acid induced platelet aggregation). The format is cell-based. On the procedure:
(§1) (1) Assay for Platelet Aggregation In Vitro
(§2) The turbidometric method of G. V. R. Born, Nature 194, 927 (1962) is used. Platelet rich plasma (PRP) and platelet poor plasma (PPP) are prepared with 0.38% sodium citrate-treated blood. Speed and time of centrifugation varied with different species; human:160 g for 20 minutes, dog:160 g for 15 minutes, guinea pig and rabbit:160 g for 15 minutes, and rat:230 g for 10 minutes. Aggregation is monitored with a Payton dual channel module or Chronolog lumiaggregometer when the release of ATP is simultaneously measured. 0.45 ml of PRP is added to a cuvette and prewarmed to 37° C. The stimulant (arachidonic acid or synthetic platelet activating factor) is added in volumes of 50 μl; all other agents in 5 μl. Vehicles are added to samples not containing agents. 0 to 100% light transmission is set with PRP and PPP. % aggregation is calculated from the % increase in light transmission at 5 minutes after the addition of the aggregating agent. For inhibition of aggregation studies the inhibitor is added first and preincubated with the platelets for 1 minute with stirring, followed by the stimulant. % inhibition is calculated from the % aggregation with and without the test compound. [formula]

Assay [2] has as its system platelet activating factor induced platelet aggregation. The experiment in a line: Platelet activating factor induced platelet aggregation in vitro. The class given is cell-based. The settings on record: racemic platelet activating factor; read-out: PAF (IC50, platelet activating factor induced platelet aggregation). The protocol: as §1, §2
For assay [3], the system named is KCl-induced constriction in guinea pig ilea. The assay can be described thus: Antagonism of KCl-induced constriction in guinea pig ilea. On the procedure: (h) Antagonism of KCl-induced Constriction in Guinea Pig Ilea
A 1-1.5 cm segment of guinea pig ileum removed from animals weighing 200-250 g is suspended in an organ bath containing 10 ml of Tyrodes solution with 10^-6 M atropine sulfate and 10^-6 M pyrilamine maleate. The bath is maintained at 37° C. and aerated with a mixture of 95% O2 and 5% CO2. KCl induces isometric constrictions of the ileum at concentrations between 10-30mM. The contractions consist of two phases, an initial fast contraction (the phasic portion), followed by a relaxation down to less intense but more prolonged contraction (the tonic phase). Varying concentrations of test drugs are incubated with the ileum for three minutes prior to KCl-challenge. The drug concentrations, which inhibit by 50% the phasic and tonic portion of the KCl-induced constrictions, are determined (IC50 's).

Assay [4] concerns the target T1, TXA2 synthase in human platelet microsomes (Homo sapiens, UniProt P24557).
T1 construct: using microsomal fractions from human platelets as enzyme source; from tissue; host or cells: human platelets, microsomal fraction
T1 sequence (P24557 1-533): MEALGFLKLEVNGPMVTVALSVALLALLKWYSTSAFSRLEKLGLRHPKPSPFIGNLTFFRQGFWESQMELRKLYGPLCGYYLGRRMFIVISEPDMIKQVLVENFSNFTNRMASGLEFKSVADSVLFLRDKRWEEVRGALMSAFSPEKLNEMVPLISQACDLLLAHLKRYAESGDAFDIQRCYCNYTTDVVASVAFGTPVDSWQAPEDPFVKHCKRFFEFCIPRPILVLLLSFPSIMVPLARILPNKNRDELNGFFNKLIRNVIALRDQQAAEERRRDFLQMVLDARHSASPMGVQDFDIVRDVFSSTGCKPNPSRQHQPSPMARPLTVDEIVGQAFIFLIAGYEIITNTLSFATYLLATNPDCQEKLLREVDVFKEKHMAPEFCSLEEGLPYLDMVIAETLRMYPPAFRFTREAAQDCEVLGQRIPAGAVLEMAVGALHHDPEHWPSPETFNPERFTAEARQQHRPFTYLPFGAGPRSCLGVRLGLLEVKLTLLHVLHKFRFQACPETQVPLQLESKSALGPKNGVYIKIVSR
The experiment in a line: Thromboxane synthase (TXA2 syn.) inhibitory activity. As to conditions: 10 μM PGH2. The format is biochemical. The protocol: (d) Assay for Thromboxane Synthase (TXA2 Syn.) Inhibitory Activity
TXA2 syn. activity is measured by following the conversion of ^14 C-prostaglandin endoperoxide (PGH2) to ^14 C-thromboxane A2 (TXA2) using microsomal fractions from human platelets as enzyme source. In the aqueous incubation medium, the TXA2 decomposes rapidly into TXB2. The amount of TXA2 syn. is adjusted so that under the conditions of the assay approximately 80-90% of the substrate, PGH2, is converted to product in control tubes. To prepare ^14 C-PGH2, ^14 C-AA (50-60 mCi/mmole; Rose Chem.) is incubated with sheep seminal vesicular gland microsomes for 1.5 min at 37° and then the ^14 C-PGH2 is extracted with diethylether, purified on columns of Sephadex LH-20 or silicic acid, and stored in acetone at -70° C. Incubations are done as follows. Sufficient ^14 C-PGH2 to yield a final substrate concentration of 10 μM (~30,000 cpm) is added to the incubation tubes and then the acetone is removed under nitrogen. The tubes are placed in an ice bath and then 215 μl of ice cold phosphate buffered saline, 10 μl of ethanol (control) or of test drug in ethanol, and 25 μl of the microsomal suspension are added with mixing in that order as rapidly as possible. The tubes are incubated at 22° for 2 minutes, the reaction is stopped and then the radioactive products and the uncoverted PGH2 are extracted and analyzed by thin layer chromatography. […] The amount of ^14 C-PGH2 converted to products was used as a measure of TXA2 synthase activity. Inhibitors were tested initially at a final concentration of 100 μM.

Assay [5] deals with PAF-induced bronchoconstriction. The experiment in a line: Antagonism of PAF-induced bronchoconstriction in the guinea pig. The settings on record: Cavia porcellus, po, 2 hour pretreatment; read-out: ID50 antagonism of PAF-induced bronchoconstriction. The class given is in vivo, guinea pig (Hartley strain). The protocol:
(g) Antagonism of PAF and Histamine-induced Bronchoconstriction in Guinea Pig
Spontaneously breathing male guinea pigs (Hartley strain) weighing 300-450 grams are dosed orally with test drug or control vehicle two hours prior to challenge with agonist. The animals are anesthetized with urethane (2 gm/kg) intraperitoneally and the jugular vein and trachea are cannulated. Two hours after dosing, the animal is paralyzed with succinylcholine (1.2 mg/kg, i.v.) and ventilated (Harvard rodent respirator) at 40 breaths/minutes and 2.5 cc tidal volume. Propranolol (0.1 mg/kg, i.v.) is administered and five minutes thereafter the animal is challenged with a constrictory dose of platelet activating factor (10 μg/kg, i.v.) or histamine dihydrochloride (20 μg/kg, i.v.). The change (cm H2 O) between pre and peak ventilatory pressure readings is averaged for three control animals and five drug treated animals. The percent inhibition is calculated from the following formula: (Control-Drug Treated/Control)×100.

Where [6] appears, read: phasic, read-out: IC50 antagonism of KCl-induced constriction (phasic).
The mark [7] stands for this setting: tonic, read-out: IC50 antagonism of KCl-induced constriction (tonic).

For orientation: IC50 means the concentration that inhibits the measured activity by half. `CC(C)c1ccc2nc3ccc(C(=O)NCCCCCCc4cccnc4)cn3c(=O)c2c1` [Compound C, 2-(1-Methylethyl)-N-[6-(3-pyridyl)hexyl]-11-oxo-11H-pyrido[2,1-b]quinazoline-8-carboxamide]: the IC50 in assay [1] was below 10 µM; in assay [2], below 10 µM; in assay [3] (setting [6]) it was 5.4 µM; in assay [3] (setting [7]) it was 2.4 µM; in assay [4], 0.1 µM. Also, the ED50 in assay [5] stood at 50 mg/kg.

Consider `CC(C)c1ccc2nc3ccc(C(=O)NCCCCc4cccnc4)cn3c(=O)c2c1` [Compound B, 2-(1-methylethyl)-N-[4-(3-pyridyl)butyl]-11-oxo-11H-pyrido[2,1-b]quinazoline-8-carboxamide], for which the IC50 in assay [1] was below 10 µM; in assay [2], below 10 µM; in assay [3] (setting [6]) it was 13 µM; in assay [3] (setting [7]), 8 µM; in assay [4], 0.1 to 1 µM. In addition, the ED50 in assay [5] stood at 100 mg/kg.

As to `CC(C)c1ccc2nc3ccc(C(=O)NCCCCn4ccnc4)cn3c(=O)c2c1` [Compound A, N-[4-(1H-imidazol-1-yl)butyl]-2-(1-methylethyl)-11-oxo-11H-pyrido[2,1-b]quinazoline-8-carboxamide], the IC50 is below 10 µM in assay [1]; above 10 µM in assay [2]; 17 µM in assay [3] (setting [6]); 10 µM in assay [3] (setting [7]); 0.1 to 1 µM in assay [4]. The ED50 in assay [5] is 13 mg/kg.
